How the values were obtained:
[1] = target: Serotonin 2 (5-HT2) receptor (Homo sapiens, UniProt P41595+P28223+P28335); assay: In vitro binding affinity of compound against neuronal 5-hydroxytryptamine 2 receptor; assay type: protein assay
[2] = target: T1, Adrenergic receptor alpha-1 (Homo sapiens, UniProt P35348+P25100+P35368); assay: In vitro binding affinity of compound against Alpha-1 adrenergic receptor; assay type: protein assay
T1 sequence (P35348 whole entry): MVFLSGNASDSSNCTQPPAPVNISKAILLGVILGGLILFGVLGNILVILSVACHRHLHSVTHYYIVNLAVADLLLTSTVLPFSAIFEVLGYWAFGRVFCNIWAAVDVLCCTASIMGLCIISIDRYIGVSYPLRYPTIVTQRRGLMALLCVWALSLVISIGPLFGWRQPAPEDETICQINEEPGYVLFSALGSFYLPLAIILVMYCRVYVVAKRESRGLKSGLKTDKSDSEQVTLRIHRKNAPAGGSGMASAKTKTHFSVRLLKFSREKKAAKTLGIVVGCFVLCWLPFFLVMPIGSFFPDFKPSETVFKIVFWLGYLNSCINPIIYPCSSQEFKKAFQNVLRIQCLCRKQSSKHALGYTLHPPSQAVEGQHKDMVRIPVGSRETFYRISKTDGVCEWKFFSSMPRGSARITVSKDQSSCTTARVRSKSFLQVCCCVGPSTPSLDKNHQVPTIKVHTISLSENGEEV
T1 sequence (P25100 whole entry): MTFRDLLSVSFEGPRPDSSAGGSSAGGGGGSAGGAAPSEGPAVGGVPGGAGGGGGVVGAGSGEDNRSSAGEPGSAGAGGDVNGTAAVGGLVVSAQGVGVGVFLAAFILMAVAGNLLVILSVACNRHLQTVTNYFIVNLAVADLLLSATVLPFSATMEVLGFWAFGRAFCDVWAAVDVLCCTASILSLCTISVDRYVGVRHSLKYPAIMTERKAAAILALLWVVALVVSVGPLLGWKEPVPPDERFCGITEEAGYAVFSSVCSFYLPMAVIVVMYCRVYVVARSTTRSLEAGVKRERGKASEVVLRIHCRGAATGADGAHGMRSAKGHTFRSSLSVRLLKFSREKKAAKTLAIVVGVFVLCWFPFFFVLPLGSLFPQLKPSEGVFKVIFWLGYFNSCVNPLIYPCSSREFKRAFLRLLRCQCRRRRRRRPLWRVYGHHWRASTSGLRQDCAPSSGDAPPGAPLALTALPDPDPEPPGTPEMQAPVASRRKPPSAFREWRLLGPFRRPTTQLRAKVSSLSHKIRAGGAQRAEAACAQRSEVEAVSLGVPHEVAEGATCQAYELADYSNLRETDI
T1 sequence (P35368 whole entry): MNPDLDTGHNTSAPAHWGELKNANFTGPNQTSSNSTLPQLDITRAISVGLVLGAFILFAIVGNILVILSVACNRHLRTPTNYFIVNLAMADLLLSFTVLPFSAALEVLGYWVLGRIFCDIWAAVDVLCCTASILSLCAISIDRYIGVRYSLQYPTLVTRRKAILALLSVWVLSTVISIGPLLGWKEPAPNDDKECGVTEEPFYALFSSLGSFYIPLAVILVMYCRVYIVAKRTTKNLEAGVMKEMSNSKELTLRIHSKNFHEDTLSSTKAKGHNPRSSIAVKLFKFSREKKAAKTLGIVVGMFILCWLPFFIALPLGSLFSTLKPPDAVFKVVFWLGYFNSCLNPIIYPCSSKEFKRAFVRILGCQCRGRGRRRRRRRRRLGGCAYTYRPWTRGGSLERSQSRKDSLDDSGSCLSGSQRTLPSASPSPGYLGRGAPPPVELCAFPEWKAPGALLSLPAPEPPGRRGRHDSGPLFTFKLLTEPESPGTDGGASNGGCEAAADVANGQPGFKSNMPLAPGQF

Adrenergic receptor beta = Adrenergic receptor beta (Homo sapiens, UniProt P08588+P07550+P13945); assay: In vitro binding affinity of compound against neuronal Beta adrenergic receptor; assay type: protein assay
D(2) dopamine receptor = D(2) dopamine receptor (Homo sapiens, UniProt P14416); assay: In vitro binding affinity of compound against neuronal Dopamine receptor D2
Sequence of D(2) dopamine receptor (P14416 whole entry): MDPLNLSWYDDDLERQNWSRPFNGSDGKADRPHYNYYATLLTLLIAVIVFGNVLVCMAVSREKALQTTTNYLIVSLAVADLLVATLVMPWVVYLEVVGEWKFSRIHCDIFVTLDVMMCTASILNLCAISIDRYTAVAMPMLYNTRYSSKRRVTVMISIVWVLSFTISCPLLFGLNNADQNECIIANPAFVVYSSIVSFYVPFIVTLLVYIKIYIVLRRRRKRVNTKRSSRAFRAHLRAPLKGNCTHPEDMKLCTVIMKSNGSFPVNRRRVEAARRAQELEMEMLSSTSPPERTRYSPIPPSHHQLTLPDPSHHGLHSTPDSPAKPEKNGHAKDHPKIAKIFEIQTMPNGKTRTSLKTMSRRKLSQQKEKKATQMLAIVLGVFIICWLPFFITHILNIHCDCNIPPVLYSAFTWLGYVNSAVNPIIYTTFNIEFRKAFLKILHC

D(1A) dopamine receptor = D(1A) dopamine receptor (Homo sapiens, UniProt P21728); assay: In vitro binding affinity of compound against dopamine neuronal Dopamine receptor D1
Sequence of D(1A) dopamine receptor (P21728 whole entry): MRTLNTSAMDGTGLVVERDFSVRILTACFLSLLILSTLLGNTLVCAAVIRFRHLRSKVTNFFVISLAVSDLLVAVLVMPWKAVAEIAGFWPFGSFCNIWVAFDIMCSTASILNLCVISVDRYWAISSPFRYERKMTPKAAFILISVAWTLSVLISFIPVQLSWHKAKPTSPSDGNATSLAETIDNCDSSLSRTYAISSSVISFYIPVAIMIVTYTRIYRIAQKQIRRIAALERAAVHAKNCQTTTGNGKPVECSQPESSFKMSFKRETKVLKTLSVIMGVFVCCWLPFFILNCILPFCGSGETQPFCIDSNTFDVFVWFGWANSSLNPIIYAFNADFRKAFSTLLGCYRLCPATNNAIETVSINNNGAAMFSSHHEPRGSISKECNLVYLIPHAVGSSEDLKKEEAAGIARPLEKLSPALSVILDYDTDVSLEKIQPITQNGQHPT

[3] = target: GABA-A receptor; anion channel; assay: In vitro binding affinity for neuronal GABA-A receptor; assay type: protein-complex assay
Histamine H1 receptor = Histamine H1 receptor (Homo sapiens, UniProt P35367); assay: In vitro binding affinity of compound against histamine H1 neuronal receptor
Sequence of Histamine H1 receptor (P35367 whole entry): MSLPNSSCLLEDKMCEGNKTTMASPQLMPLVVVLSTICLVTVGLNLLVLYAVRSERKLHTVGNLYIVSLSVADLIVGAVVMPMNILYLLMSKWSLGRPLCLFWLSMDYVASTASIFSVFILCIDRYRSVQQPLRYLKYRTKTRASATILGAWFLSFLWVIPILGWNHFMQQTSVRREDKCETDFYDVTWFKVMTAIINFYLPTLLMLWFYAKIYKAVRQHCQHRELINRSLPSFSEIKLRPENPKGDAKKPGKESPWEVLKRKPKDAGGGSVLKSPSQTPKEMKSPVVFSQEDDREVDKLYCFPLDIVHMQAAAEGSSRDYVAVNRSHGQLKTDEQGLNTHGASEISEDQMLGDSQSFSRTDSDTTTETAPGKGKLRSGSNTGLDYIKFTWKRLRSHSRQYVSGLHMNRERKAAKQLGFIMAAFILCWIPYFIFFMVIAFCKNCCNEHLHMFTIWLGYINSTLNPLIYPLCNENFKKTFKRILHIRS

Mus musculus [4] = assay: In vivo minimum effective dose of compound to block the apomorphine-induced climbing behavior in mice after intravenous administration; assay type: functional
Mus musculus [5] = assay: In vivo minimum effective dose of compound to block the apomorphine-induced climbing behavior in mice after subcutaneous administration; assay type: functional
[6] = target: Muscarinic acetylcholine receptor; assay: In vitro binding affinity of compound against muscarinic neuronal receptor; assay type: protein assay
Rattus norvegicus [7] = assay: In vivo minimum effective dose of compound to block the conditioned avoidance behavior in rats after intravenous administration; assay type: functional
Rattus norvegicus [8] = assay: In vivo minimum effective dose of compound to block the conditioned avoidance behavior in rats after peroral administration; assay type: functional
[9] = target: T2, Adrenergic receptor alpha-2 (Homo sapiens, UniProt P08913+P18825+P18089); assay: In vitro binding affinity of compound against neuronal alpha-2 adrenergic receptor; assay type: protein assay
T2 sequence (P08913 whole entry): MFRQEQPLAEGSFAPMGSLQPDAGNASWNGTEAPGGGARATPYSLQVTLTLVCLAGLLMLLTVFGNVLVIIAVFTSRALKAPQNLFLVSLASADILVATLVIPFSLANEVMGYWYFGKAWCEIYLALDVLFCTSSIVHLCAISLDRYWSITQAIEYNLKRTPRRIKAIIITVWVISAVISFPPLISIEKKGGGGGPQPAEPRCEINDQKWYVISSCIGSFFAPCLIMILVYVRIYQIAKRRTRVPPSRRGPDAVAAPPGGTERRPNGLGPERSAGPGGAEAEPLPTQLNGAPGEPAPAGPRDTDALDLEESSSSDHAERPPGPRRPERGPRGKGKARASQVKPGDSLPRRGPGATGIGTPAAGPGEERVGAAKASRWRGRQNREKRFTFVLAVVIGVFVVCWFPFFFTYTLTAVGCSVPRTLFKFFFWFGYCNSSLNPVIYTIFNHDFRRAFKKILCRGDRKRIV
T2 sequence (P18825 whole entry): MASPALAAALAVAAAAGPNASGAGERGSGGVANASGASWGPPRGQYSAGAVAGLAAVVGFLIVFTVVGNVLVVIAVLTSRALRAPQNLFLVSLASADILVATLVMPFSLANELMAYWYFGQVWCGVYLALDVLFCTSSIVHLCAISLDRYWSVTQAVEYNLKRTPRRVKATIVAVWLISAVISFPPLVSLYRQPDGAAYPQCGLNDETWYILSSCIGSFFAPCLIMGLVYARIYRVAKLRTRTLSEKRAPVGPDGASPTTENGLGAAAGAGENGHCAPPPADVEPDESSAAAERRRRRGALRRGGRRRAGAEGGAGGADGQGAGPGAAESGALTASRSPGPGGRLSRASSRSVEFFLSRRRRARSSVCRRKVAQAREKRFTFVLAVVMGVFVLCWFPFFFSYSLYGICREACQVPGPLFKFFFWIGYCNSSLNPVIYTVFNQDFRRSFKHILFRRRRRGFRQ
T2 sequence (P18089 whole entry): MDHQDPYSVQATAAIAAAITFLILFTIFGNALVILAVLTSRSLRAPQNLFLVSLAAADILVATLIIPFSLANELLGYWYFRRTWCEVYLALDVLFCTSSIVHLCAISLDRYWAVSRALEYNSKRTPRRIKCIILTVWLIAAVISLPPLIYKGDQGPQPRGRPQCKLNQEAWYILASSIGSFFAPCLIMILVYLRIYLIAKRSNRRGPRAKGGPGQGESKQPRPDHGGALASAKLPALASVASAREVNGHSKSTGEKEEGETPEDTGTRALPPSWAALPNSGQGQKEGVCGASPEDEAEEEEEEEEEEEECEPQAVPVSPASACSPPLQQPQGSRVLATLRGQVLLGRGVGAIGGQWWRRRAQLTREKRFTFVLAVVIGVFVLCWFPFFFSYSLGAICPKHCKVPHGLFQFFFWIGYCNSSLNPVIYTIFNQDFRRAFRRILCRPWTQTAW

[10] = target: GABA-A receptor; anion channel; assay: In vitro binding affinity for neuronal GABA-A benzodiazepine receptor; assay type: protein-complex assay
Mus musculus [11] = assay: In vivo minimum effective dose of compound to block the apomorphine-induced climbing behavior in mice after peroral administration; assay type: functional

Row | SMILES | Ki [1] | Ki [2] | Ki (Adrenergic receptor beta) | Ki (D(2) dopamine receptor) | Ki (D(1A) dopamine receptor) | Ki [3] | Ki (Histamine H1 receptor) | EDmin (Mus musculus [4]) | EDmin (Mus musculus [5]) | Ki [6] | EDmin (Rattus norvegicus [7]) | EDmin (Rattus norvegicus [8]) | Ki [9] | Ki [10] | EDmin (Mus musculus [11])
1 | Cc1cc2c(s1)Nc1ccccc1N=C2N1CC[N+](C)([O-])CC1 | 112 nM | 266 nM | > 10000 nM | 119 nM | 395 nM | > 10000 nM | 87 nM | >10 mg/kg | 12.5 mg/kg | 662 nM | >4 mg/kg | >25 mg/kg | > 10000 nM | > 10000 nM | 
2 | Cc1cc2c(s1)Nc1ccccc1N=C2N1CCN(C)CC1 [OLANZAPINE] |  |  |  |  |  | > 10000 nM |  | 1 mg/kg | 0.625 mg/kg |  | 0.25 mg/kg | 2.5 mg/kg |  | > 10000 nM | 2.5 mg/kg
3 | Cc1cc2c(s1)Nc1ccccc1N=C2N1CCNCC1 [DESMETHYLOLANZAPINE] | 23 nM | 80 nM | > 10000 nM | 9 nM | 203 nM | > 10000 nM | 22 nM | >10 mg/kg | 50 mg/kg | 333 nM | >4 mg/kg | >25 mg/kg | 1000 nM | > 10000 nM | 
4 | CN1CCN(C2=Nc3ccccc3Nc3sc(CO)cc32)CC1 | 18 nM | 12 nM | > 10000 nM | 22 nM | 66 nM | > 10000 nM | 6 nM |  |  | 501 nM |  |  | 783 nM | > 1000 nM | 20 mg/kg

Source: ChEMBL document CHEMBL1150510 (Bioorg Med Chem Lett, 1997)
